This test concerns microbes in production water. Briefly: biomass control with NaOCl solution (viable count CFU/mL). The format is cell-based. The note with it: 0.03-0.6% NaOCl, 23 hours, presence or absence of oxygen. The procedure:
The procedures to test the effectiveness, and the minimum dose, of NaOCl that is required to eliminate biomass in the injection line and injection well-bore during the field biogasification process are the following. The initial population of microbes in production water, placed in tubes that were to be incubated under defined oxygen saturation conditions was determined either by direct counting of cells using a Petroff Hausser bacterial counting chamber, or by counting the colony forming units (CFU/mL) of microorganisms that developed on specialized media after incubation for specific period. The population of microbes that were present in the incubated tubes (also with added carbon source-coal and nutrient additions) was determined over time after methane was detected in the headspace of the tubes. Thereafter, the same tubes were amended with different concentrations (0.6%, 0.3%, 0.15%, 0.1%, 0.075%, 0.06%, 0.03% and 0%) of NaOCl solution followed by incubation of the tubes for 23 hours to allow the biomolecule-oxidizing action of the solution to come to appreciable completion. Immediately after this, the population of viable microbes (i.e. CFU/mL) in the NaOCl-amended tubes was determined by plating a specific volume of the culture on defined solid medium.

`OCl` [NaOCl, sodium hypochlorite]: the “inactivation of microorganisms (viable CFU/mL)” value is “effective in inactiving microorganisms”.

Values taken from patent US20110308790A1, “IN SITU METHANOGENESIS MODELING AND RISK ANALYSIS” (CONOCOPHILLIPS COMPANY, priority 2010, published 2011).
